Columns and labels:
[1] = system: Caco-2 cell line; assay: Cytotoxicity MTS assay, Caco-2 cell line; format: cell-based; details: for OD490 Mean / OD490 Well 1 / OD490 Well 2 / OD490 Well 3: Caco-2 cell line
Procedure: (§1) The positive compounds (IC50 < 100 μM) obtained from the primary Eg5 motor protein ATPase assay were tested for antiproliferative activity in vitro against Caco-2 cell line, Hela cell line, L929 cell line and T24 cell line by performing MTS assay. Cells were introduced into 96-well plates at a density of 1000 cells per well. After 24 h incubation, the cells were exposed with compounds at final concentrations ranging from 0.5 to 100 µM for 24 h. DMSO was used at a final concentration of 0.025% as blank control, monastrol was used as the positive control. Then 20 µL (CellTiter 96® AQueous One Solution Promega, Madison, WI, USA) reagent was added in each well. After 2 h at 37 °C in a 80% humidified, 5% CO2 atmosphere, the absorbance at 490 nm was recorded using a microplate reader (BIO-RAD iMark^TM). The results were obtained in three independent duplicate experiments. The primary data were shown in Supplementary Materials Tables S4–S7. The IC50 values for these compounds were calculated from a non-linear regression graph plotted between the percentage of cell viability and concentration with SPSS17.0 software.

[2] = system: Hela cell line; assay: Cytotoxicity MTS assay, Hela cell line; format: cell-based; details: for OD490 value, Mean / OD490 value, Well 1 / OD490 value, Well 2 / OD490 value, Well 3: Hela cell line, MTS
Procedure: as §1

CCOC(=O)c1c(C2NC(=O)NC(C)=C2C(=O)Nc2ccccc2OC)[nH]c(C(=O)OC)c1C (centres unmarked) [D1]
OD490 Mean ([1]; 0.5μM, first assay): 0.6107 | OD490 Well 1 ([1]; 0.5μM, first assay): 0.5649 | OD490 Well 2 ([1]; 0.5μM, first assay): 0.5391 | OD490 Well 3 ([1]; 0.5μM, first assay): 0.7282 | OD490 Mean ([1]; 0.5μM, second assay): 0.6066 | OD490 Well 1 ([1]; 0.5μM, second assay): 0.6391 | OD490 Well 2 ([1]; 0.5μM, second assay): 0.6324 | OD490 Well 3 ([1]; 0.5μM, second assay): 0.5484 | OD490 Mean ([1]; 0.5μM, third assay): 0.6142 | OD490 Well 1 ([1]; 0.5μM, third assay): 0.6774 | OD490 Well 2 ([1]; 0.5μM, third assay): 0.5749 | OD490 Well 3 ([1]; 0.5μM, third assay): 0.5903 | OD490 Mean ([1]; 1μM, first assay): 0.6086 | OD490 Well 1 ([1]; 1μM, first assay): 0.6046 | OD490 Well 2 ([1]; 1μM, first assay): 0.6209 | OD490 Well 3 ([1]; 1μM, first assay): 0.6002 | OD490 Mean ([1]; 1μM, second assay): 0.6031 | OD490 Well 1 ([1]; 1μM, second assay): 0.6102 | OD490 Well 2 ([1]; 1μM, second assay): 0.5846 | OD490 Well 3 ([1]; 1μM, second assay): 0.6145 | OD490 Mean ([1]; 1μM, third assay): 0.6182 | OD490 Well 1 ([1]; 1μM, third assay): 0.6046 | OD490 Well 2 ([1]; 1μM, third assay): 0.6112 | OD490 Well 3 ([1]; 1μM, third assay): 0.6387 | OD490 Mean ([1]; 10μM, first assay): 0.6584 | OD490 Well 1 ([1]; 10μM, first assay): 0.6611 | OD490 Well 2 ([1]; 10μM, first assay): 0.6501 | OD490 Well 3 ([1]; 10μM, first assay): 0.6639 | OD490 Mean ([1]; 10μM, second assay): 0.6246 | OD490 Well 1 ([1]; 10μM, second assay): 0.6493 | OD490 Well 2 ([1]; 10μM, second assay): 0.5502 | OD490 Well 3 ([1]; 10μM, second assay): 0.6742 | OD490 Mean ([1]; 10μM, third assay): 0.6177 | OD490 Well 1 ([1]; 10μM, third assay): 0.6611 | OD490 Well 2 ([1]; 10μM, third assay): 0.5578 | OD490 Well 3 ([1]; 10μM, third assay): 0.6341 | OD490 Mean ([1]; 25μM, first assay): 0.5948 | OD490 Well 1 ([1]; 25μM, first assay): 0.6149 | OD490 Well 2 ([1]; 25μM, first assay): 0.5791 | OD490 Well 3 ([1]; 25μM, first assay): 0.5903 | OD490 Mean ([1]; 25μM, second assay): 0.5865 | OD490 Well 1 ([1]; 25μM, second assay): 0.5801 | OD490 Well 2 ([1]; 25μM, second assay): 0.6127 | OD490 Well 3 ([1]; 25μM, second assay): 0.5666 | OD490 Mean ([1]; 25μM, third assay): 0.5866 | OD490 Well 1 ([1]; 25μM, third assay): 0.5903 | OD490 Well 2 ([1]; 25μM, third assay): 0.5721 | OD490 Well 3 ([1]; 25μM, third assay): 0.5974 | OD490 Mean ([1]; 50μM, first assay): 0.5045 | OD490 Well 1 ([1]; 50μM, first assay): 0.5048 | OD490 Well 2 ([1]; 50μM, first assay): 0.5114 | OD490 Well 3 ([1]; 50μM, first assay): 0.4972 | OD490 Mean ([1]; 50μM, second assay): 0.5178 | OD490 Well 1 ([1]; 50μM, second assay): 0.4983 | OD490 Well 2 ([1]; 50μM, second assay): 0.5020 | OD490 Well 3 ([1]; 50μM, second assay): 0.5531 | OD490 Mean ([1]; 50μM, third assay): 0.5361 | OD490 Well 1 ([1]; 50μM, third assay): 0.6048 | OD490 Well 2 ([1]; 50μM, third assay): 0.5048 | OD490 Well 3 ([1]; 50μM, third assay): 0.4988 | OD490 Mean ([1]; 100μM, first assay): 0.5483 | OD490 Well 1 ([1]; 100μM, first assay): 0.6273 | OD490 Well 2 ([1]; 100μM, first assay): 0.5214 | OD490 Well 3 ([1]; 100μM, first assay): 0.4962 | OD490 Mean ([1]; 100μM, second assay): 0.5031 | OD490 Well 1 ([1]; 100μM, second assay): 0.5662 | OD490 Well 2 ([1]; 100μM, second assay): 0.4999 | OD490 Well 3 ([1]; 100μM, second assay): 0.4431 | OD490 Mean ([1]; 100μM, third assay): 0.4792 | OD490 Well 1 ([1]; 100μM, third assay): 0.5214 | OD490 Well 2 ([1]; 100μM, third assay): 0.4347 | OD490 Well 3 ([1]; 100μM, third assay): 0.4814 | IC50 ([1]; MTS assay, 24 h exposure): 108 µM | OD490 value, Mean ([2]; 0.5μM, first assay): 2.5955 | OD490 value, Well 1 ([2]; 0.5μM, first assay): 2.6286 | OD490 value, Well 2 ([2]; 0.5μM, first assay): 2.5425 | OD490 value, Well 3 ([2]; 0.5μM, first assay): 2.6155 | OD490 value, Mean ([2]; 0.5μM, second assay): 2.5919 | OD490 value, Well 1 ([2]; 0.5μM, second assay): 2.6314 | OD490 value, Well 2 ([2]; 0.5μM, second assay): 2.6010 | OD490 value, Well 3 ([2]; 0.5μM, second assay): 2.5433 | OD490 value, Mean ([2]; 0.5μM, third assay): 2.5096 | OD490 value, Well 1 ([2]; 0.5μM, third assay): 2.7036 | OD490 value, Well 2 ([2]; 0.5μM, third assay): 2.5565 | OD490 value, Well 3 ([2]; 0.5μM, third assay): 2.2688 | OD490 value, Mean ([2]; 1μM, first assay): 2.6416 | OD490 value, Well 1 ([2]; 1μM, first assay): 2.6885 | OD490 value, Well 2 ([2]; 1μM, first assay): 2.5442 | OD490 value, Well 3 ([2]; 1μM, first assay): 2.6922 | OD490 value, Mean ([2]; 1μM, second assay): 2.5793 | OD490 value, Well 1 ([2]; 1μM, second assay): 2.5367 | OD490 value, Well 2 ([2]; 1μM, second assay): 2.4698 | OD490 value, Well 3 ([2]; 1μM, second assay): 2.7314 | OD490 value, Mean ([2]; 1μM, third assay): 2.7183 | OD490 value, Well 1 ([2]; 1μM, third assay): 2.6969 | OD490 value, Well 2 ([2]; 1μM, third assay): 2.7546 | OD490 value, Well 3 ([2]; 1μM, third assay): 2.7033 | OD490 value, Mean ([2]; 10μM, first assay): 2.4106 | OD490 value, Well 1 ([2]; 10μM, first assay): 2.3442 | OD490 value, Well 2 ([2]; 10μM, first assay): 2.5603 | OD490 value, Well 3 ([2]; 10μM, first assay): 2.3272 | OD490 value, Mean ([2]; 10μM, second assay): 2.3296 | OD490 value, Well 1 ([2]; 10μM, second assay): 2.6351 | OD490 value, Well 2 ([2]; 10μM, second assay): 2.1367 | OD490 value, Well 3 ([2]; 10μM, second assay): 2.2169 | OD490 value, Mean ([2]; 10μM, third assay): 2.4826 | OD490 value, Well 1 ([2]; 10μM, third assay): 2.5635 | OD490 value, Well 2 ([2]; 10μM, third assay): 2.3145 | OD490 value, Well 3 ([2]; 10μM, third assay): 2.5698 | OD490 value, Mean ([2]; 25μM, first assay): 2.1398 | OD490 value, Well 1 ([2]; 25μM, first assay): 2.1204 | OD490 value, Well 2 ([2]; 25μM, first assay): 2.2546 | OD490 value, Well 3 ([2]; 25μM, first assay): 2.0445 | OD490 value, Mean ([2]; 25μM, second assay): 2.1914 | OD490 value, Well 1 ([2]; 25μM, second assay): 2.2361 | OD490 value, Well 2 ([2]; 25μM, second assay): 2.1235 | OD490 value, Well 3 ([2]; 25μM, second assay): 2.2145 | OD490 value, Mean ([2]; 25μM, third assay): 2.1507 | OD490 value, Well 1 ([2]; 25μM, third assay): 2.2233 | OD490 value, Well 2 ([2]; 25μM, third assay): 2.2142 | OD490 value, Well 3 ([2]; 25μM, third assay): 2.0145 | OD490 value, Mean ([2]; 50μM, first assay): 2.0448 | OD490 value, Well 1 ([2]; 50μM, first assay): 2.0719 | OD490 value, Well 2 ([2]; 50μM, first assay): 2.1034 | OD490 value, Well 3 ([2]; 50μM, first assay): 1.9590 | OD490 value, Mean ([2]; 50μM, second assay): 2.0574 | OD490 value, Well 1 ([2]; 50μM, second assay): 1.9987 | OD490 value, Well 2 ([2]; 50μM, second assay): 2.1136 | OD490 value, Well 3 ([2]; 50μM, second assay): 2.0599 | OD490 value, Mean ([2]; 50μM, third assay): 2.0424 | OD490 value, Well 1 ([2]; 50μM, third assay): 2.0136 | OD490 value, Well 2 ([2]; 50μM, third assay): 1.9658 | OD490 value, Well 3 ([2]; 50μM, third assay): 2.1478 | OD490 value, Mean ([2]; 100μM, first assay): 1.9714 | OD490 value, Well 1 ([2]; 100μM, first assay): 1.9106 | OD490 value, Well 2 ([2]; 100μM, first assay): 1.9576 | OD490 value, Well 3 ([2]; 100μM, first assay): 2.0459 | OD490 value, Mean ([2]; 100μM, second assay): 1.9690 | OD490 value, Well 1 ([2]; 100μM, second assay): 2.0360 | OD490 value, Well 2 ([2]; 100μM, second assay): 1.8490 | OD490 value, Well 3 ([2]; 100μM, second assay): 2.0220 | OD490 value, Mean ([2]; 100μM, third assay): 1.9075 | OD490 value, Well 1 ([2]; 100μM, third assay): 2.0141 | OD490 value, Well 2 ([2]; 100μM, third assay): 1.8426 | OD490 value, Well 3 ([2]; 100μM, third assay): 1.8657 | IC50 ([2]; MTS assay, 24 h exposure): 128 µM

— paper PMC8037182, “Solvothermal Synthesis of Multiple Dihydropyrimidinones at a Time as Inhibitors of Eg5” (Molecules, 2021)
